# Source: patent publication US5679701A (priority 1996, dated 1997)
# Entries after “also recorded” stand apart in the source; their conditions may differ. Where two headings read alike, the source gives them in different places.
# Assays:
# [1] = molecular target: T1, ryanodine receptor (skeletal sarcoplasmic reticulum membrane vesicles) (Oryctolagus cuniculus, UniProt P11716); assay: biochemical; assay type: binding
# T1 construct: skeletal sarcoplasmic reticulum membrane vesicles; from tissue; host or cells: skeletal muscle sarcoplasmic reticulum membrane vesicles
# [2] = tested on: SR Ca^++ release channel/ryanodine receptor (cardiac and skeletal muscle vesicles); assay type: biochemical
# [3] = molecular target: T2, Sarcoplasmic Reticular Ca^++ -Release Channel (ryanodine receptor) (Oryctolagus cuniculus, UniProt P11716); assay: biochemical; assay type: binding
# T2 construct: skeletal sarcoplasmic reticulum membrane vesicles; from tissue; host or cells: skeletal muscle sarcoplasmic reticulum membrane vesicles
# [4] = Table I, displacement of 6.7 nM [3H]ryanodine, mean ± standard deviation of replicates, read-out: IC50
# [5] = Table I, mean ± standard deviation of replicates, read-out: KD
# [6] = second embodiment, read-out: IC50
# [7] = first embodiment, read-out: IC50
# [8] = Table II, more highly purified standards, read-out: IC50 (nM) ± S.D.
# T2 sequence (P11716 whole entry): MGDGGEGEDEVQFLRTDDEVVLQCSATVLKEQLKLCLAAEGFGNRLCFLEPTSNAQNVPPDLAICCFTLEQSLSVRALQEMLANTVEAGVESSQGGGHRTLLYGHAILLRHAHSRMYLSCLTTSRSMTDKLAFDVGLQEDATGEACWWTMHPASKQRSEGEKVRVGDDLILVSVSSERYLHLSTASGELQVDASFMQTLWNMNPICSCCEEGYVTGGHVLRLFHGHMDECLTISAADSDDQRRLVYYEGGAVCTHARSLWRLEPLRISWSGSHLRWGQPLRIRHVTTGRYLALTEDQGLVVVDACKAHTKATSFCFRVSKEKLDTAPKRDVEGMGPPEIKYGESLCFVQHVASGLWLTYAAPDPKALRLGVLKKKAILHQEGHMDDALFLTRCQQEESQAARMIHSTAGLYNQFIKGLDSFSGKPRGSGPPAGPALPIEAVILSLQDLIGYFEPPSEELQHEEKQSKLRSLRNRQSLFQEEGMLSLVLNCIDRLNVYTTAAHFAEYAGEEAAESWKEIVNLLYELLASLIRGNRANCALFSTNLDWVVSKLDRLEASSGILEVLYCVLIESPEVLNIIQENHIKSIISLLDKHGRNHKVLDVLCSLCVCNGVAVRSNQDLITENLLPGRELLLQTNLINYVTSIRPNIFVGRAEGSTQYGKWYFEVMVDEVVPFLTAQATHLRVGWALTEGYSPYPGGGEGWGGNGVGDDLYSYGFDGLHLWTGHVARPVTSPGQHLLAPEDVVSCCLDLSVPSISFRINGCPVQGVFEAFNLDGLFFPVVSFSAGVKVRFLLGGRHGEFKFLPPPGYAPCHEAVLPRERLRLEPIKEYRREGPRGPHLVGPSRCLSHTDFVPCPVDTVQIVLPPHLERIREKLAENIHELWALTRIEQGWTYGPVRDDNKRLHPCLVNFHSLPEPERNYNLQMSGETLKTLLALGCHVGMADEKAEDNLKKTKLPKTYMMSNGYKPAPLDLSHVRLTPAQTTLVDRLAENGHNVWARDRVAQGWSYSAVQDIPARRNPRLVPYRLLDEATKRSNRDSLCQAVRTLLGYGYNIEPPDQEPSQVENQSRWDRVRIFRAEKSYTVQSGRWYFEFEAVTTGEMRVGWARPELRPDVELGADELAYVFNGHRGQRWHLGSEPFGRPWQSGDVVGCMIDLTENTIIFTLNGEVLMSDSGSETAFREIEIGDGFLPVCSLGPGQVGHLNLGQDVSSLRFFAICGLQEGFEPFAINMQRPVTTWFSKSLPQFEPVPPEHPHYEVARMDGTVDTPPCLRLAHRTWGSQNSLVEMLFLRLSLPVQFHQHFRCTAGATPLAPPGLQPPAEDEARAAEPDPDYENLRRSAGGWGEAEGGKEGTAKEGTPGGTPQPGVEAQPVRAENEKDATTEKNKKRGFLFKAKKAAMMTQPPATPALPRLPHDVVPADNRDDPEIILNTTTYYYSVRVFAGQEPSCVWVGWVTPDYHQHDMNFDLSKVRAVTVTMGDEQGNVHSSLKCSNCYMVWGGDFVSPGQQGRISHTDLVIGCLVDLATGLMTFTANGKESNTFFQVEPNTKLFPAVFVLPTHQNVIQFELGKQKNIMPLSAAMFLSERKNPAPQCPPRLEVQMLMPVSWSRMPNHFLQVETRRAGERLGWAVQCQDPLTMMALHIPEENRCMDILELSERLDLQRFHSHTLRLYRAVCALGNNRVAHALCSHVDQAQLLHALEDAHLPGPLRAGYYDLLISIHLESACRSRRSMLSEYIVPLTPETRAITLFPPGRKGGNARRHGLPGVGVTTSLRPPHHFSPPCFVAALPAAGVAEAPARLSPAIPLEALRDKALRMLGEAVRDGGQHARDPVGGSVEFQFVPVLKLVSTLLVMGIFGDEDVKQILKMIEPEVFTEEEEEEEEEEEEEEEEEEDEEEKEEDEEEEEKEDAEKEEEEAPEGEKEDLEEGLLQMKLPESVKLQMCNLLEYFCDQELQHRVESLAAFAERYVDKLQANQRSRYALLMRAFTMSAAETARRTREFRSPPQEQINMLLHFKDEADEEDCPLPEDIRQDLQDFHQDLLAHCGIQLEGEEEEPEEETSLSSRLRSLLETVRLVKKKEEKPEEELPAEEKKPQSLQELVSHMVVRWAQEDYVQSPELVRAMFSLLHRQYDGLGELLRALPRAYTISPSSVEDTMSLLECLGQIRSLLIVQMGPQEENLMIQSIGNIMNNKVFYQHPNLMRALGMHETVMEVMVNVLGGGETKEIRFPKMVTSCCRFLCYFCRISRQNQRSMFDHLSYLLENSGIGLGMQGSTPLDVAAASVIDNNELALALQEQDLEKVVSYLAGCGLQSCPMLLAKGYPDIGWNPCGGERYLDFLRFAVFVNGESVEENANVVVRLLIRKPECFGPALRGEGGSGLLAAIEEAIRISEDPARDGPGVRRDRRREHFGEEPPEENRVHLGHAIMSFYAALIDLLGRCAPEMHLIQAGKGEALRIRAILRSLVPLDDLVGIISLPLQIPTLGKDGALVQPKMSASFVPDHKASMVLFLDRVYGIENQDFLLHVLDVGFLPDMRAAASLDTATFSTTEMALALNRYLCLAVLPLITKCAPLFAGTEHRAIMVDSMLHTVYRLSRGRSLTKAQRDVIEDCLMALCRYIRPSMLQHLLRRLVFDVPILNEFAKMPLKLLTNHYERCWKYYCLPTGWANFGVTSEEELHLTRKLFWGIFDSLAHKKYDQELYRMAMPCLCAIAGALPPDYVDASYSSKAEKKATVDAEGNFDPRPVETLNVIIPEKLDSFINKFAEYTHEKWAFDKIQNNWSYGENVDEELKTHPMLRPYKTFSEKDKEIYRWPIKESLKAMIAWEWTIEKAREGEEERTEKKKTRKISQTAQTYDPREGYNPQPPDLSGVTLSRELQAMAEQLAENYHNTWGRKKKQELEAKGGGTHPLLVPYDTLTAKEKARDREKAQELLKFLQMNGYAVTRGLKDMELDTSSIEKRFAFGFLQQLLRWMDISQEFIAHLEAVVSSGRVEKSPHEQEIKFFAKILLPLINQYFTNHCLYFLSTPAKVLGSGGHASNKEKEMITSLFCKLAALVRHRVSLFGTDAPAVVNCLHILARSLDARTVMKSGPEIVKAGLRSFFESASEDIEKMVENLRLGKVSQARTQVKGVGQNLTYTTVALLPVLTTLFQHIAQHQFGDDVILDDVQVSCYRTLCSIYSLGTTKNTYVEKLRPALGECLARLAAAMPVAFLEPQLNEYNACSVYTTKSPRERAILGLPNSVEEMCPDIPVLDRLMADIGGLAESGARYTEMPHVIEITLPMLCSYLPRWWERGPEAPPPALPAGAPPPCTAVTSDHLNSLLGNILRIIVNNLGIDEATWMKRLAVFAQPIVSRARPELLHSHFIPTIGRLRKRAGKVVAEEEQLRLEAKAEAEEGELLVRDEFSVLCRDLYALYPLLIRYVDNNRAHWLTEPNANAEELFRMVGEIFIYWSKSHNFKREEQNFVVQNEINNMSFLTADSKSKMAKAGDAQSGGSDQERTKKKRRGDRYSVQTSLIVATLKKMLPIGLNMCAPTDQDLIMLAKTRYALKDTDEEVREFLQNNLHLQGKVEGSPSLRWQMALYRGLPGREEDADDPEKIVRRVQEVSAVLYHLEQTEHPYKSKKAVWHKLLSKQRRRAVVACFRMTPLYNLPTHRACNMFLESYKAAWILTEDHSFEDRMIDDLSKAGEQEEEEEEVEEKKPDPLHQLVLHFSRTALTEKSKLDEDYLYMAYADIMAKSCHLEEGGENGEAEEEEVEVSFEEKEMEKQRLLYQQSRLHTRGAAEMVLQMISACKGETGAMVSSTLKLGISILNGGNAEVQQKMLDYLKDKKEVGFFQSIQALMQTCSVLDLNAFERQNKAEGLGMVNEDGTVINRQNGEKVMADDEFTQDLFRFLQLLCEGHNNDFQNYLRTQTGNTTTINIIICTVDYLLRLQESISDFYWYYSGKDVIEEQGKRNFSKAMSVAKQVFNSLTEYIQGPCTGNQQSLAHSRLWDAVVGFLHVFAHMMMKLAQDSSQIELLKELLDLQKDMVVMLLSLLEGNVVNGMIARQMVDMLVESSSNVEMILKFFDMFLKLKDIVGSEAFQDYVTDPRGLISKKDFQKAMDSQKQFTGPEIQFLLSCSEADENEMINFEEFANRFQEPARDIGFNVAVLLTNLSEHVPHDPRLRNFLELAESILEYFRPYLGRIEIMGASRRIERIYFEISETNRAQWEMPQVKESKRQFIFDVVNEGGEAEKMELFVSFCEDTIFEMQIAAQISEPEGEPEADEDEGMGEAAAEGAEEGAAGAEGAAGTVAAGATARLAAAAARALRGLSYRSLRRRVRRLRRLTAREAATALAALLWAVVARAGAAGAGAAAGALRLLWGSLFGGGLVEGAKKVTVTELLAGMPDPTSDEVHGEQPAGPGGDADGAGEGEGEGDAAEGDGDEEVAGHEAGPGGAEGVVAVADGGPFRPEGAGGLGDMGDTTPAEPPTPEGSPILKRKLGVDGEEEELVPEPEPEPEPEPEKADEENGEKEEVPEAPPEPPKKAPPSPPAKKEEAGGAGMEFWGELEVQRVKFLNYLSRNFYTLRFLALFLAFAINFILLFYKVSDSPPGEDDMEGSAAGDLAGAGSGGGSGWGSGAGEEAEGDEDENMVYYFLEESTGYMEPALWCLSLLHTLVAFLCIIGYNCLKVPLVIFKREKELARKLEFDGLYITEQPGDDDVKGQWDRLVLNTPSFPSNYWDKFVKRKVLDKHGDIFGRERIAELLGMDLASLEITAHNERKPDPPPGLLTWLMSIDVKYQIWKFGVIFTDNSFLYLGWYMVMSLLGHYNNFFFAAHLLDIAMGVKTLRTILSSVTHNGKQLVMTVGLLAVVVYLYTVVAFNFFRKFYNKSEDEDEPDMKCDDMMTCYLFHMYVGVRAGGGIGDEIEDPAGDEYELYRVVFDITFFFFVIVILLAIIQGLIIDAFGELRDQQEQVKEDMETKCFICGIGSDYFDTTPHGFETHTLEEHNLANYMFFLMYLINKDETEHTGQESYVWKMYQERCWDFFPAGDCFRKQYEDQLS
# T1 sequence (P11716 whole entry): as above
smiles,measurement,setting,value
"C=C1CCC2(O)C3(C)CC4(O)OC2(C1O)C1(O)C3(O)C(OC(=O)c2ccc[nH]2)C(O)(C(C)C)C41C (stereo not shown) [Dehydroryanodine, dehydroryanodine]",IC50,[1],16.1 ± 4.1 nM
same,Kd,[1],5.4 ± 0.1 nM
same,closing of the SR Ca^++ release channel (in words),"[2]; I, NMDS: concentrations as high as 300 μM, ryanodine, dehydroryanodine: >μM",the channel is closed
same,opening of the SR Ca^++ release channel (in words),"[2]; ryanodine, dehydroryanodine: low concentrations (<μM)",opens the SR Ca^++ release channel/ryanodine receptor; also recorded: the Ca^++ release channel is opened
"CC1CCC2(O)C3(C)CC4(O)OC2(C1OC(=O)CNC(=O)OCc1ccccc1)C1(O)C3(O)C(OC(=O)c2ccc[nH]2)C(O)(C(C)C)C41C (stereo not shown) [I, O10eq-[(N'Carbobenzyloxy)-Glycyl]-Ryanodine]",IC50,[1]; [4],22.3 ± 7.3 nM
same,Kd,[1]; [5],6.6 ± 2 nM
same,relative binding affinity compared with ryanodine (in words),[3]; vs ryanodine,slightly enhanced affinity
same,closing of the SR Ca^++ release channel (in words),[2],neither XVII(NMDS) nor CBZ-glycyl-ryanodine (I) exhibits significant ability to close the channel
same,opening of the SR Ca^++ release channel (in words),[2],"only slightly less active than ryanodine for opening the channel; also recorded: same selective activity of only opening this channel, albeit at higher dose levels"
same,potency and selectivity comparison (in words),[2]; I vs XVIII (NMDS),more potent and more selective than XVIII(NMDS)
"C=C1CCC2(O)C3(C)CC4(O)OC2(C1OC(=O)CCNC(=O)c1ccccc1)C1(O)C3(O)C(OC(=O)c2ccc[nH]2)C(O)(C(C)C)C41C (stereo not drawn) [II, O10eg -(N-Benzoyl-β-alanyl)-Dehydroryanodine]",IC50,[1]; [4],25.1 ± 8.2 nM
same,Kd,[1]; [5],8.2 ± 3.2 nM
"C=C1CCC2(O)C3(C)CC4(O)OC2(C1OC(=O)CCNC(=O)C12CC5CC(CC(C5)C1)C2)C1(O)C3(O)C(OC(=O)c2ccc[nH]2)C(O)(C(C)C)C41C (stereo not drawn) [III, O10eq-[N-(1-Adamantanecarbonyl)-β-Alanyl]-Dehydroryanodine]",IC50,[1]; [4],72.8 ± 6.2 nM
same,Kd,[1]; [5],26.9 ± 3.6 nM
"CC1CCC2(O)C3(C)CC4(O)OC2(C1OC(=O)CCNC(=O)OCc1ccccc1)C1(O)C3(O)C(OC(=O)c2ccc[nH]2)C(O)(C(C)C)C41C (stereo not drawn) [IV, O10eq. -Carbobenzyloxy-β-alanyl-ryanodine]",IC50,[1]; [4],12.3 ± 1 nM
same,Kd,[1]; [5],4 ± 0.2 nM
same,IC50,"[1]; restated for adjustment, read-out: IC50 value (Table I value as restated in text)",12.3 nM
same,IC50,"[3]; Table I value multiplied by 6.2/11.9=0.52, read-out: adjusted IC50 value",6.4 nM
same,IC50,[3]; [6],5.9 nM
same,relative binding affinity compared with ryanodine (in words),[3]; vs ryanodine,slightly enhanced affinity
same,opening of the SR Ca^++ release channel (in words),[2],"same selective activity of only opening this channel, albeit at higher dose levels"
"CC1=C(C(C)C)C(OC(=O)c2ccc[nH]2)C2(O)C3(C)CC(=O)OC4(C(OC(=O)CCN)C(C)CCC34O)C12O (stereo not drawn) [V-I, O10eq -β-Alanyl-Anhydroryanodine]",IC50,[1]; [4],37 nM
same,IC50,[1]; [7],106 nM
same,Kd,"[1]; first embodiment, read-out: KD",37 nM
same,binding affinity as fraction of that of Ryanodine,[1]; vs ryanodine,1/10
"CC1CCC2(O)C3(C)CC4(O)OC2(C1OC(=O)CCNC(=O)c1cc(N=[N+]=[N-])ccc1[N+](=O)[O-])C1(O)C3(O)C(OC(=O)c2ccc[nH]2)C(O)(C(C)C)C41C (stereo not drawn) [VI, O10eq-[N-(5-Azido-2-nitrobenzoyl)-β-Alanyl] Ryanodine]",binding affinity for the ryanodine receptor (in words),[1],of a similar magnitude as that of ryanodine
same,IC50,[1]; [4],36.6 ± 2.8 nM
same,Kd,[1]; [5],12.5 ± 1 nM
same,Kd,"[1]; VI prepared from V-II, read-out: KD (50)",12.5 ± 1 nM
same,IC50,"[1]; VI prepared from V, read-out: IC50",37.2 ± 9.7 nM
same,Kd,"[1]; VI prepared from V, read-out: KD",14 ± 3.6 nM
same,IC50,[1]; [7],36.6 ± 2.8 nM
same,Kd,"[1]; first embodiment, read-out: KD",12.5 ± 1 nM
"C=C1CCC2(O)C3(C)CC4(O)OC2(C1OC(=O)CCNC(=O)c1ccc(I)cc1)C1(O)C3(O)C(OC(=O)c2ccc[nH]2)C(O)(C(C)C)C41C (stereo not drawn) [XII, p-Iodobenzoyl-β-alanyl-dehydroryanodine]",binding affinity for the ryanodine receptor (in words),[1],binds effectively to the ryanodine receptor
same,IC50,[1]; [4],16 nM
same,Kd,[1]; [5],5.2 nM
same,IC50,[1]; [7],16 nM
same,Kd,"[1]; first embodiment, read-out: KD",5.2 nM
"C=C1CCC2(O)C3(C)CC4(O)OC2(C1OC(=O)CCNC(=O)c1ccc(OCCCC)cc1)C1(O)C3(O)C(OC(=O)c2ccc[nH]2)C(O)(C(C)C)C41C (stereo not drawn) [XIII, O10eq-[N-(p-n-Butoxybenzoyl)-β-Alanyl]-Dehydroryanodine]",IC50,[1]; [4],28 ± 6.6 nM
same,Kd,[1]; [5],9.7 ± 2.5 nM
same,IC50,[1]; [7],20.2 nM
same,Kd,"[1]; first embodiment, read-out: KD",6 nM
"CC1CCC2(O)C3(C)CC4(O)OC2(C1OC(=O)CCNC(=O)CCCCC1SCC2NC(=O)NC21)C1(O)C3(O)C(OC(=O)c2ccc[nH]2)C(O)(C(C)C)C41C (stereo not drawn) [XIV, O10eq -N-Biotinlyl-β-Alanyl-Ryanodine]",IC50,[1]; [4],65.1 ± 5.5 nM
same,Kd,[1]; [5],24.9 ± 1.4 nM
same,IC50,[1]; [7],65.1 ± 3.5 nM
same,Kd,"[1]; first embodiment, read-out: KD",24.9 ± 1.4 nM
"CC1=CC(C)=[N+]2C1=Cc1ccc(CCC(=O)NCCC(=O)OC3C(C)CCC4(O)C5(C)CC6(O)OC34C3(O)C5(O)C(OC(=O)c4ccc[nH]4)C(O)(C(C)C)C63C)n1[B-]2(F)F (stereo not drawn) [XV, O10eq -N-BODIPY(FL C3)-β-Alanyl-Ryanodine]",IC50,[1]; [4],41.2 ± 2.7 nM
same,Kd,[1]; [5],15.8 ± 1 nM
same,IC50,[1]; [7],41.2 ± 2.7 nM
same,Kd,"[1]; first embodiment, read-out: KD",15.8 ± 1 nM
"C=C1CCC2(O)C3(C)CC4(O)OC2(C1OC(=O)CCC(=O)O)C1(O)C3(O)C(OC(=O)c2ccc[nH]2)C(O)(C(C)C)C41C (stereo not shown) [XVII, Dehydroryanodine-O10eg -Hemi-Succinate]",IC50,[1]; IC50 (nM),> 1000 nM
"C=C1CCC2(O)C3(C)CC4(O)OC2(C1OC(=O)CCC(=O)NC)C1(O)C3(O)C(OC(=O)c2ccc[nH]2)C(O)(C(C)C)C41C (stereo not shown) [XVIII, N-Methyl-Dehydroryanodine-Succinamidate]",IC50,[1]; IC50 (nM),49.4 ± 10.6 nM
same,Kd,[1]; [5],19.9 ± 5.8 nM
same,closing of the SR Ca^++ release channel (in words),[2],neither XVII(NMDS) nor CBZ-glycyl-ryanodine (I) exhibits significant ability to close the channel
same,opening of the SR Ca^++ release channel (in words),[2],only slightly less active than ryanodine for opening the channel
"CC1CCC2(O)C3(C)CC4(O)OC2(C1OC(=O)CCNC(=NC(=O)OCc1ccccc1)NC(=O)OCc1ccccc1)C1(O)C3(O)C(OC(=O)c2ccc[nH]2)C(O)(C(C)C)C41C (stereo not drawn) [XX, O10eq -β-N,N'-bis-Cbz-guanidino-propionyl-ryanodine]",IC50,[3]; [8],43.6 nM
same,lessened affinity compared with ryanodine,[3]; vs ryanodine,7-20 fold
"CC1CCC2(O)C3(C)CC4(O)OC2(C1OC(=O)CN)C1(O)C3(O)C(OC(=O)c2ccc[nH]2)C(O)(C(C)C)C41C (stereo not shown) [XXII, O10eq -glycyl-ryanodine]",IC50,[3]; [8],1.8 ± 0.4 nM
"CC1CCC2(O)C3(C)CC4(O)OC2(C1OC(=O)CNC(=NC(=O)OCc1ccccc1)NC(=O)OCc1ccccc1)C1(O)C3(O)C(OC(=O)c2ccc[nH]2)C(O)(C(C)C)C41C (stereo not shown) [XXIII, O10eq -N,N'-bis-(Cbz)-guanidinoacetyl-ryanodine]",lessened affinity compared with ryanodine,[3],7-20 fold
same,IC50,[3]; IC50 (nM) ± S.D.,136 nM
"CC1CCC2(O)C3(OC4(O)C[C@]2(C)C2(O)[C@H](OC(=O)c5ccc[nH]5)C(O)(C(C)C)C4(C)C32O)[C@@H]1OC(=O)CN=C(N)N (stereo partly shown) [XXIV, O10eq -Guanidinoacetyl-Ryanodine]",IC50,[3]; [8],1.8 ± 0.2 nM
same,IC50,[3]; [6],1.8 nM
"C=C1CCC2(O)C3(C)CC4(O)OC2(C1OC(=O)CCNC(=O)OCc1ccccc1)C1(O)C3(O)C(OC(=O)c2ccc[nH]2)C(O)(C(C)C)C41C (stereo not drawn) [XXV, O10eq -CBZ-β-Alanyl-Dehydroryanodine]",IC50,[3]; [8],4.43 nM
"C=C1CCC2(O)C3(C)CC4(O)OC2(C1OC(=O)CCN)C1(O)C3(O)C(OC(=O)c2ccc[nH]2)C(O)(C(C)C)C41C (stereo not drawn) [XXVI, O10eq -β-Alanyl-Dehydroryanodine]",IC50,[3]; [8],3.36 nM
